Experimental data published in patent US11524073B2, “Anti-human ADRB3 monoclonal antibody and application thereof in disease diagnosis and treatment” (priority 2017, dated 2022).

System: Human glioma cells U87
Assay: Glioma treatment in nude mice
Assay type: in vivo
Method: Human glioma cells U87 were subcutaneously transplanted into the back of nude mice of 6 weeks old, which were used as the tumor model after tumor formation. In the experiment, the mice were divided into 4 groups with 8 mice in each group: normal control group, model control group, ADRB3 antibody treatment group, Gemcitabine and CD40 antibody combined treatment group. The ADRB3 antibody treatment group was intraperitoneally injected with 0.1 mg of ADRB3 antibody once every 5 days for a total of 6 weeks. The model control group was intraperitoneally injected with equivalent amount of normal saline.

In the case of `Nc1ccn([C@@H]2O[C@H](CO)[C@@H](O)C2(F)F)c(=O)n1` [Gemcitabine], the “metastatic lesion in the lung” value is reported as “some metastases are found”.
